Measured values taken from ChEMBL document CHEMBL5465560, “Selectivity Literature for EUbOPEN Chemogenomic Library” (2024).

Key:
[1] = molecular target: Tyrosine-protein kinase ABL2 (Homo sapiens, UniProt P42684); assay: Selectivity interaction (SelectScreen profiling (Invitrogen)) EUB0000607a ABL2; details: at 2 µM
[2] = molecular target: Mitogen-activated protein kinase 1 (Homo sapiens, UniProt P28482); assay: Selectivity interaction (Upstate Kinase Profiler service (Millipore)) EUB0000056c MAPK1; details: at 1 µM
[3] = molecular target: Rho-associated protein kinase 2 (Homo sapiens, UniProt O75116); assay: Selectivity interaction (Upstate Kinase Profiler service (Millipore)) EUB0000056c ROCK2; details: at 1 µM
[4] = molecular target: Tyrosine-protein kinase Yes (Homo sapiens) (UniProt P07947); details: at 10 µM
[5] = molecular target: MAP/microtubule affinity-regulating kinase 3 (Homo sapiens) (UniProt P27448); assay: Selectivity interaction (Kinase panel (Invitrogen)) EUB0000639a MARK3; details: at 200 nM
[6] = molecular target: Protein arginine N-methyltransferase 3 (Homo sapiens, UniProt O60678); assay: Selectivity interaction (Scintillation proximity assays) EUB0000255b PRMT3
[7] = molecular target: Tyrosine-protein kinase Lyn (Homo sapiens, UniProt P07948); assay: Selectivity interaction (KinomeScan (DiscoverX)) EUB0001049a LYN; details: at 1 µM
[8] = molecular target: Dual specificity tyrosine-phosphorylation-regulated kinase 1A (Homo sapiens, UniProt Q13627); assay: Selectivity interaction (Kinase screening (Nanosyn)) EUB0000604a DYRK1A
[9] = molecular target: Fibroblast growth factor receptor 1 (Homo sapiens, UniProt P11362); assay: Selectivity interaction (Kinase panel (DSF assay)) EUB0001558a FGFR1
[10] = molecular target: T1, Protein kinase C iota type (Homo sapiens) (UniProt P41743); assay: Selectivity interaction (KinomeScan (DiscoverX)) EUB0001079a PRKCI; details: at 1 µM
T1 sequence (whole entry): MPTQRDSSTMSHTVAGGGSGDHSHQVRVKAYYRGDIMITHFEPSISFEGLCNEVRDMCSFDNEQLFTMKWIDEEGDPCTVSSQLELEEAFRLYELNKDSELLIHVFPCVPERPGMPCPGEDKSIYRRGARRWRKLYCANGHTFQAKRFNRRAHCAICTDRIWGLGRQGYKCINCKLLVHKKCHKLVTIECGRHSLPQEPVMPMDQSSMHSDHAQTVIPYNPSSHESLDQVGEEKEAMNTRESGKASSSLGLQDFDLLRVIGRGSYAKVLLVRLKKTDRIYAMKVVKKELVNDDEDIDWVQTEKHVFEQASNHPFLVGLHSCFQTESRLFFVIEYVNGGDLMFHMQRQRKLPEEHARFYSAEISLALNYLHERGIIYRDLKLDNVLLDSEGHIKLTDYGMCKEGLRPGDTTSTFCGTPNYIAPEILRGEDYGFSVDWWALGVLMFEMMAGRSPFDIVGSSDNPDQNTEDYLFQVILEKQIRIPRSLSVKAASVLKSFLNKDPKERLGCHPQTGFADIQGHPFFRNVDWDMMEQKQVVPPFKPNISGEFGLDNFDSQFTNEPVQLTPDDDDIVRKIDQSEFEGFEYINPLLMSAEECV

[11] = molecular target: Serine/threonine-protein kinase Nek4 (Homo sapiens) (UniProt P51957); assay: Selectivity interaction (KinomeScan (DiscoverX)) EUB0001079a NEK4; details: at 1 µM
[12] = molecular target: Ribosomal protein S6 kinase alpha-3 (Homo sapiens, UniProt P51812); assay: Selectivity interaction (KinomeScan (DiscoverX)) EUB0000229b RPS6KA3; details: at 10 µM
[13] = molecular target: Cyclin-dependent kinase 11B (Homo sapiens) (UniProt P21127); assay: Selectivity interaction (KinomeScan (DiscoverX)) EUB0000229b CDK11B; details: at 10 µM
[14] = molecular target: Rho-associated protein kinase 1 (Homo sapiens) (UniProt Q13464); assay: Selectivity interaction (KinomeScan (DiscoverX)) EUB0000229b ROCK1; details: at 10 µM
[15] = molecular target: T2, Activin receptor type-1 (Homo sapiens) (UniProt Q04771); assay: Selectivity interaction (KinomeScan (DiscoverX)) EUB0000092b ACVR1; details: at 10 µM
T2 sequence (whole entry): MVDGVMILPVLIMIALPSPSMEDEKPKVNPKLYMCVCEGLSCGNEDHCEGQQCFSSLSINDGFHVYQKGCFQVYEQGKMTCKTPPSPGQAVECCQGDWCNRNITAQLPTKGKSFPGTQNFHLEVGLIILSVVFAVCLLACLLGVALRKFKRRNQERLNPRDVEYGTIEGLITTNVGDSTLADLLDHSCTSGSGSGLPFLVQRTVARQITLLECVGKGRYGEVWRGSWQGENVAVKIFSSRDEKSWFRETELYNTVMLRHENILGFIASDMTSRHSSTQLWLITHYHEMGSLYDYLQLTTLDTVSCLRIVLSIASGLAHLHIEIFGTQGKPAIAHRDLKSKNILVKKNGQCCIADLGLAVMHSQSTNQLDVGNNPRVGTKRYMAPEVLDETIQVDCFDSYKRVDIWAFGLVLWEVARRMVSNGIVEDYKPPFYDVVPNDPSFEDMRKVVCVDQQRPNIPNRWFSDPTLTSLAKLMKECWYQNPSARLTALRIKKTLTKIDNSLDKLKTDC

[16] = molecular target: T3, Phosphatidylinositol 5-phosphate 4-kinase type-2 gamma (Homo sapiens) (UniProt Q8TBX8); assay: Selectivity interaction (KinomeScan (DiscoverX)) EUB0000092b PIP4K2C; details: at 10 µM
T3 sequence (whole entry): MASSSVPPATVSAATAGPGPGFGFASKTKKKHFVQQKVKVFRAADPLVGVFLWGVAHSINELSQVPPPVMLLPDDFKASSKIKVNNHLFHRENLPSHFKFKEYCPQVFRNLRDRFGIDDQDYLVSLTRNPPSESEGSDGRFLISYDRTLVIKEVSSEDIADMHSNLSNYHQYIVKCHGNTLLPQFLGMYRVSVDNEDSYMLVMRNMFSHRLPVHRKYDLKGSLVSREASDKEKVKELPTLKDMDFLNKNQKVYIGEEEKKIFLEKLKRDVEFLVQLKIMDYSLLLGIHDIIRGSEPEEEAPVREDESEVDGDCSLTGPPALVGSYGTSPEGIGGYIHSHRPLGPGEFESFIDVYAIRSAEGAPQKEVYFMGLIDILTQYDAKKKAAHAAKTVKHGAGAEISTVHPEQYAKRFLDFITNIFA

[17] = molecular target: Tyrosine-protein kinase Fes/Fps (Homo sapiens) (UniProt P07332); assay: Selectivity interaction (ActivX KiNativ screen (ex vivo kinase selectivity in human PBMCs)) EUB0001619a FES; assay type: cell-based; details: PBMC, at 1 µM
[18] = molecular target: Tyrosine-protein kinase Yes (Homo sapiens) (UniProt P07947); assay: Selectivity interaction (ActivX KiNativ screen (ex vivo kinase selectivity in human PBMCs)) EUB0001619a YES1; assay type: cell-based; details: PBMC, at 1 µM

Tyrosine-protein kinase Yes (Homo sapiens), sequence (P07947 2-543 limits assumed): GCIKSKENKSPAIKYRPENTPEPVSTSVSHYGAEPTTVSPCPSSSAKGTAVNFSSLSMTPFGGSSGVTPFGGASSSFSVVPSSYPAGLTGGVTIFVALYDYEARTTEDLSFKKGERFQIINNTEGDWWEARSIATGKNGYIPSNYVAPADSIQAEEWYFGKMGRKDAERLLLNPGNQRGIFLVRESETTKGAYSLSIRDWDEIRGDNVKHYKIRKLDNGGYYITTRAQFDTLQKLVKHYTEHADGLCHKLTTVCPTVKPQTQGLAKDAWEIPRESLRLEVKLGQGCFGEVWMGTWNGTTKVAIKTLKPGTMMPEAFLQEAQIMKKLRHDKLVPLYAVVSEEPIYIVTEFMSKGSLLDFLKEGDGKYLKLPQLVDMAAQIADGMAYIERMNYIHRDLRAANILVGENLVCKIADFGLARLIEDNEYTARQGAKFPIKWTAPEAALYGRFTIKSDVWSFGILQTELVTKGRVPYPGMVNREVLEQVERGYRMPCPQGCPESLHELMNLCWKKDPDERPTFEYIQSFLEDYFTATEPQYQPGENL
Tyrosine-protein kinase Lyn, sequence (P07948 2-512 limits assumed): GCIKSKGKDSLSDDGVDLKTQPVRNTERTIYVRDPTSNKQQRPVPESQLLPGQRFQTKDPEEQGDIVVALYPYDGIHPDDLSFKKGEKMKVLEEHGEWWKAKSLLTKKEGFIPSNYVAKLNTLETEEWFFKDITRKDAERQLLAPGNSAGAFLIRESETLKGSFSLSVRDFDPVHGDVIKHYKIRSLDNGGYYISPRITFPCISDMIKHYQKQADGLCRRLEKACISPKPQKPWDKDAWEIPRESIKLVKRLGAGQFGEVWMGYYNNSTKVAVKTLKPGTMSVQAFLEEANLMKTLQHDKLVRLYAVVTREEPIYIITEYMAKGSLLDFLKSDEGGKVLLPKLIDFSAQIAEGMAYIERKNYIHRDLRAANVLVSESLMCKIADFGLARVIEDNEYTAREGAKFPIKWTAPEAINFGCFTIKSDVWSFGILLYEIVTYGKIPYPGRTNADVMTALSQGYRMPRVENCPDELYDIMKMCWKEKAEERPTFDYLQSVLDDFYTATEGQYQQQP
Protein arginine N-methyltransferase 3, sequence (O60678 whole entry): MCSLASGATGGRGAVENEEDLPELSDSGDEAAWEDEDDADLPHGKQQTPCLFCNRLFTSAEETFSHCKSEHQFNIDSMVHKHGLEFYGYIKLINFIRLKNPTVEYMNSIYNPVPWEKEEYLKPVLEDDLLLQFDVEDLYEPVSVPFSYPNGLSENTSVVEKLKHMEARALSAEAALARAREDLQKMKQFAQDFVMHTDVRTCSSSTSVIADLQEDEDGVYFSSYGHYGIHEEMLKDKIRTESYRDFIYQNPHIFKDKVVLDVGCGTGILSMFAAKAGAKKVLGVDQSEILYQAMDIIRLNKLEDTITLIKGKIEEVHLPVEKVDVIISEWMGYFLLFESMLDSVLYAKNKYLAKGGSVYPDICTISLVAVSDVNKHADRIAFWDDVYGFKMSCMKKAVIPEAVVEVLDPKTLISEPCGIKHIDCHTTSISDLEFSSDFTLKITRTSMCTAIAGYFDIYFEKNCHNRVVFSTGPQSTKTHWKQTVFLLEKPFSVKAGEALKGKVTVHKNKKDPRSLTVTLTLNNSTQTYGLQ
Fibroblast growth factor receptor 1, sequence (P11362 22-822 limits assumed): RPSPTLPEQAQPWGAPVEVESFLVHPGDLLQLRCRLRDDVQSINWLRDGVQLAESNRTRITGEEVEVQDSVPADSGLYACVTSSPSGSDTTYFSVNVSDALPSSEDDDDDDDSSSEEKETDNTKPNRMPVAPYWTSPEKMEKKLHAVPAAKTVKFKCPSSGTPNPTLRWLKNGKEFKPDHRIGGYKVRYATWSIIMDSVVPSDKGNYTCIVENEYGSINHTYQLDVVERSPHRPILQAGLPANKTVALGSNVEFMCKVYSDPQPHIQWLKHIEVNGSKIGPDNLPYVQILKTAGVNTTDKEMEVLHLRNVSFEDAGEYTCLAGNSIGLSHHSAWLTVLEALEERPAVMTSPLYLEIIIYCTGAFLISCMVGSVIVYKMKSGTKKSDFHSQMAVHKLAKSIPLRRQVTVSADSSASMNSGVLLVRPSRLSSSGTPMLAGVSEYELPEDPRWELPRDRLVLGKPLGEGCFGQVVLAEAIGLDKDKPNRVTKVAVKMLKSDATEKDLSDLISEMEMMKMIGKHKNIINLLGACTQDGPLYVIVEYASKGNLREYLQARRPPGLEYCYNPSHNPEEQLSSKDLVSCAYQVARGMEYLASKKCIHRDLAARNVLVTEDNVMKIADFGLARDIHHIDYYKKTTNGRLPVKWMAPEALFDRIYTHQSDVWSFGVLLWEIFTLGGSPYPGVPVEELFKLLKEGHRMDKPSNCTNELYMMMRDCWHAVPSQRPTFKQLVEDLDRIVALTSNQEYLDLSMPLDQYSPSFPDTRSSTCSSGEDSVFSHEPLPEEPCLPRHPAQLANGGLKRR
Serine/threonine-protein kinase Nek4 (Homo sapiens), sequence (P51957 whole entry, looked up): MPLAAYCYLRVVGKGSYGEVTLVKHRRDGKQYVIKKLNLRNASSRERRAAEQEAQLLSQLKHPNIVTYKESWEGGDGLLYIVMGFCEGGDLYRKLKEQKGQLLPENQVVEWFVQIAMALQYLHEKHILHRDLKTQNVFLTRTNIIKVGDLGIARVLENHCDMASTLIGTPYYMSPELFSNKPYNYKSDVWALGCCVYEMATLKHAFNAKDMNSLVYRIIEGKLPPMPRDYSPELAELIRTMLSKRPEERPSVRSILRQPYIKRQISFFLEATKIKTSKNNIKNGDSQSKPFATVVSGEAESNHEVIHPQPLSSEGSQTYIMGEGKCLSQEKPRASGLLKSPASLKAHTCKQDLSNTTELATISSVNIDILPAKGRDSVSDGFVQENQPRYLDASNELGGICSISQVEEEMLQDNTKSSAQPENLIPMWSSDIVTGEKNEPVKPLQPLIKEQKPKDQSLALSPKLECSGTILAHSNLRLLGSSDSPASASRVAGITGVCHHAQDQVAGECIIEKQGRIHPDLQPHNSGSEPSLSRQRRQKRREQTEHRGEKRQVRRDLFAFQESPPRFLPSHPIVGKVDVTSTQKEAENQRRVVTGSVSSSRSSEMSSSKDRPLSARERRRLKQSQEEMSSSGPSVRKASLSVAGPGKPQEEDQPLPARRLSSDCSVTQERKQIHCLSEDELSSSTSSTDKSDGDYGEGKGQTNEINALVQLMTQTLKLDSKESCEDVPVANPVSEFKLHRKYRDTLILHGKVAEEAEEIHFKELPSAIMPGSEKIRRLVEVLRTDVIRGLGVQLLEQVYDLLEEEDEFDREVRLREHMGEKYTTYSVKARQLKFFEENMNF
Ribosomal protein S6 kinase alpha-3, sequence (P51812 whole entry): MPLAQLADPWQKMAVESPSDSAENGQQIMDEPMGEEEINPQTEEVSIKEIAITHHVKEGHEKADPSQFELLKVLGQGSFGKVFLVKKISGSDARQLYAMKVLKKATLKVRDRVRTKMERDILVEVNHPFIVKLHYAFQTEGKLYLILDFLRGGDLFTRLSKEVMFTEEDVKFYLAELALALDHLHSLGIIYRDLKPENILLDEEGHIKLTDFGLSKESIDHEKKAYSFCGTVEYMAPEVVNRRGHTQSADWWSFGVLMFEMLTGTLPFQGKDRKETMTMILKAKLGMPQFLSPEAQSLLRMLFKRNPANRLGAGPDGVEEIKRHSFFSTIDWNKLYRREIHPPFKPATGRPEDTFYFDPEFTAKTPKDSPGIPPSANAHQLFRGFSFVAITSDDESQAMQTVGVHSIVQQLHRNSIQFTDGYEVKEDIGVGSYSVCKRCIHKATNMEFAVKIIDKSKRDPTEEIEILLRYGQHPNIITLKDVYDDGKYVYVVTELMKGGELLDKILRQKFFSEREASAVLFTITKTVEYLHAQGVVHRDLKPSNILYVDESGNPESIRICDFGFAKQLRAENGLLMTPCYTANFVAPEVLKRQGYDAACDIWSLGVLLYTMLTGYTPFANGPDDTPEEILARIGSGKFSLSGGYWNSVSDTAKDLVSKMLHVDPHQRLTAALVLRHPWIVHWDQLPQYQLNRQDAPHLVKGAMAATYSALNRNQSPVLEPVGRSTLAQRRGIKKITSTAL
Mitogen-activated protein kinase 1, sequence (P28482 whole entry): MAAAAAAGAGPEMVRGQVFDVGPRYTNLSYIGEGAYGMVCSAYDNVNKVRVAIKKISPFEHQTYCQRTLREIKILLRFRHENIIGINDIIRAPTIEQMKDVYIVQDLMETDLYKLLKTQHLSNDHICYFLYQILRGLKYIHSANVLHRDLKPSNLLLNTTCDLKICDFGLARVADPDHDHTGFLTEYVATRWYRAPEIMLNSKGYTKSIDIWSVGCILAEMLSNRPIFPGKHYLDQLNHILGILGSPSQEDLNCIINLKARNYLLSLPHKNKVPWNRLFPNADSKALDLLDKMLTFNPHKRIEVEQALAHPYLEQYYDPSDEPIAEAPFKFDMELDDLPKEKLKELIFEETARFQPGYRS

In the case of `CNC(=O)Nc1ccc(-c2nc(N3CC4CCC(C3)O4)c3cnn(C4CCC5(CC4)OCCO5)c3n2)cc1`, the % of inhibition [1] is reported as 13%.
With `Cc1ccc(-c2ccc3c(ccc4sc5c(c43)NC[C@@H](C)NC5=O)n2)cn1` the % of inhibition [2] was 1% and the % of inhibition [3] was -9%.
For `CCN(CC)CCCCNc1ncc2cc(-c3cc(OC)cc(OC)c3)c(NC(=O)NC(C)(C)C)nc2n1`, the % of control [4] was 100%.
Compound `CC[C@@H]1[C@H](F)C(=O)N[C@@H]1COc1nccc2cc(C(N)=O)c(OC)cc12` [ZIMLOVISERTIB] has a % of inhibition [5] of 12.4%.
Compound `COCCN1CCC(c2cc(CN(C)C(=O)c3cccc(Oc4ccccc4)c3)ccn2)CC1` has an IC50 [6] of over 10 µM.
With `COc1cc(Nc2nc(C)cc(-c3cnn4nc(OC)ccc34)n2)cc(C(F)(F)F)c1` the % of control [7] was 89%.
For `Cc1cnc(Nc2ccc(F)cc2Cl)nc1-c1c[nH]c(C(=O)N[C@H](CO)c2cccc(Cl)c2)c1`, the % of inhibition [8] was 3%.
In the case of `CC(C)(O)[C@H](F)CN1Cc2cc(NC(=O)c3cnn4cccnc34)c(N3CCOCC3)cc2C1=O`, the dTM [9] is reported as 1.1 K.
Work on `Nc1cnc(N2CCc3cc(S(=O)(=O)Nc4c(F)cc(Cl)cc4F)cc(N4CCCC4=O)c32)nc1` [TP-020n] yielded a % of control [10] of 100% and a % of control [11] of 97%.
Work on `COc1cc(N(C)c2ccnc3ccc(C(F)(F)F)cc23)cc(OC)c1OC` yielded a % binding [12] of 71%, a % binding [13] of 85% and a % binding [14] of 78%.
Work on `CCC(=O)N1CCN(c2ccc(-n3c(=O)ccc4cnc5ccc(-c6cnc7ccccc7c6)cc5c43)cc2C(F)(F)F)CC1` yielded a % of control [15] of 28% and a % of control [16] of 58%.
`N#Cc1cccc(-c2c[nH]c3ncnc(N4CCOCC4)c23)c1` gave a % of inhibition [17] of 7% and a % of inhibition [18] of -9%.
